Data as given in patent publication US20190345138A1, “HETEROCYCLIC AMIDES AS KINASE INHIBITORS” (GlaxoSmithKline Intellectual Property Development Limited, priority 2016, published 2019).
“And” between values parts separate entries of the source, which are not always exact repeats. Equal entries are not always repeated.

Experiments:
RIP1 kinase = molecular target: T1, RIP1 kinase (Homo sapiens, UniProt Q13546); experiment: fluorescent polarization based binding assay; conditions: mean of a minimum of 2 experiments
T1 sequence (Q13546 1-375 limits assumed): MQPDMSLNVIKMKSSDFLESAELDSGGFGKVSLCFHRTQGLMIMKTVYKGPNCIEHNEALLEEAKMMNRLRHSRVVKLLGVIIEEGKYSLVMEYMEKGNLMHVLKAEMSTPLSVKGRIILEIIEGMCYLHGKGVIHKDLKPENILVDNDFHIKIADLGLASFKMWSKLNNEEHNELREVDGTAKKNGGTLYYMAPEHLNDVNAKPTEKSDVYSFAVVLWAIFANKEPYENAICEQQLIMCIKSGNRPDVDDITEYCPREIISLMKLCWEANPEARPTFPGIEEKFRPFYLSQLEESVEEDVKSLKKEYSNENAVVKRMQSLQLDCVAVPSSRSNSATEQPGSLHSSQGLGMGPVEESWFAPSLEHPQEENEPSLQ
Text: A fluorescent polarization based binding assay was used to assess the activity of the compounds of this invention, the details of which are disclosed in International Patent Appln. No. PCT/IB2014/059004, now, International Patent Appln. Pub.

[1] = test system: human monocytic leukemia U937 cells; experiment: necroptosis assay in U937 cells; format: cell-based; conditions: Homo sapiens, U-937, U937 cells; viability by cellular ATP (Cell Titer-Glo); read-out: pIC50, inhibited necrosis in U937 cells (converted)
Protocol: The efficacy of RIP1 inhibitors can be tested […] in vitro using a human monocytic leukemia U937 or mouse L929 fibrosarcoma cells in a necroptosis assay. As determined using the method described in S. He et al., Cell, 137(6):1100-1111 (2009) and International Patent Appln. No. PCT/IB2014/059004, now, International Patent Appln. Pub.
Viability was measured by quantitating cellular levels of ATP using the Cell Titer-Glo kit. All data are means±standard deviation of the mean.

SMILES	IC50 (RIP1 kinase)	IC50 [1] [nM]
COc1cc(N2CCC(C(=O)N3N=CC[C@H]3c3ccccc3)CC2)ncn1 [Example 12, (S)-(1-(6-methoxypyrimidin-4-yl)piperidin-4-yl)(5-phenyl-4,5-dihydro-1H-pyrazol-1-yl)methanone]	1 to 31.6 nM and 1 to 10 nM	1 to 100
COc1cnc(N2CCC(C(=O)N3N=CC[C@H]3c3ccccc3)CC2)nc1 [Example 13, (S)-(1-(5-methoxypyrimidin-2-yl)piperidin-4-yl)(5-phenyl-4,5-dihydro-1H-pyrazol-1-yl)methanone]	1 to 31.6 nM and 1 to 10 nM	1 to 100
O=C(C1CCN(c2ccn3nccc3n2)CC1)N1N=CC[C@H]1c1ccccc1 [Example 21, (S)-(5-phenyl-4,5-dihydro-1H-pyrazol-1-yl)(1-(pyrazolo[1,5-a]pyrimidin-5-yl)piperidin-4-yl)methanone]	1 to 31.6 nM and 1 to 10 nM	1 to 100
O=C(C1CCN(c2ccc3nccn3n2)CC1)N1N=CC[C@H]1c1ccccc1 [Example 22, (S)-(1-(imidazo[1,2-b]pyridazin-6-yl)piperidin-4-yl)(5-phenyl-4,5-dihydro-1H-pyrazol-1-yl)methanone]	1 to 31.6 nM and 1 to 10 nM	1 to 100
O=C1Cc2cnc(N3CCC(C(=O)N4N=CC[C@H]4c4ccccc4)CC3)nc2N1 [Example 24, (S)-2-(4-(5-phenyl-4,5-dihydro-1H-pyrazole-1-carbonyl)piperidin-1-yl)-5H-pyrrolo[2,3-d]pyrimidin-6(7H)-one]	1 to 31.6 nM	1 to 100
O=C(C1CCN(c2ccc(C(F)(F)F)nn2)CC1)N1N=CC[C@H]1c1ccccc1 [Example 26, (S)-(5-phenyl-4,5-dihydro-1H-pyrazol-1-yl)(1-(6-(trifluoromethyl)pyridazin-3-yl)piperidin-4-yl)methanone]	1 to 31.6 nM	1 to 100
NC(=O)c1cncc(N2CCC(C(=O)N3N=CC[C@H]3c3ccccc3)CC2)n1 [Example 31, (S)-6-(4-(5-phenyl-4,5-dihydro-1H-pyrazole-1-carbonyl)piperidin-1-yl)pyrazine-2-carboxamide]	1 to 31.6 nM	1 to 100
COc1cc(N2CCC(C(=O)N3N=CC[C@H]3c3ccccc3)CC2)nc(N)n1 [Example 34, (S)-(1-(2-amino-6-methoxypyrimidin-4-yl)piperidin-4-yl)(5-phenyl-4,5-dihydro-1H-pyrazol-1-yl)methanone]	1 to 31.6 nM	1 to 100
COc1nc(N)cc(N2CCC(C(=O)N3N=CC[C@H]3c3ccccc3)CC2)n1 [Example 35, (S)-(1-(6-amino-2-methoxypyrimidin-4-yl)piperidin-4-yl)(5-phenyl-4,5-dihydro-1H-pyrazol-1-yl)methanone]	1 to 31.6 nM	1 to 100
O=C(C1CCN(c2cncc(-c3ccccc3)n2)CC1)N1N=CC[C@H]1c1ccccc1 [Example 38, (S)-(5-phenyl-4,5-dihydro-1H-pyrazol-1-yl)(1-(6-phenylpyrazin-2-yl)piperidin-4-yl)methanone]	1 to 31.6 nM	1 to 100
O=C(C1CCN(c2cnc3ccccc3n2)CC1)N1N=CC[C@H]1c1ccccc1 [Example 39, (S)-(5-phenyl-4,5-dihydro-1H-pyrazol-1-yl)(1-(quinoxalin-2-yl)piperidin-4-yl)methanone]	1 to 31.6 nM and 1 to 10 nM	1 to 100
COc1ccc(N2CCC(C(=O)N3N=CC[C@H]3c3ccccc3)CC2)nn1 [Example 49, (S)-(1-(6-methoxypyridazin-3-yl)piperidin-4-yl)(5-phenyl-4,5-dihydro-1H-pyrazol-1-yl)methanone]	1 to 31.6 nM	1 to 100
O=C(C1CCN(c2cc(C(F)(F)F)ncn2)CC1)N1N=CC[C@H]1c1ccccc1 [Example 51, (S)-(5-phenyl-4,5-dihydro-1H-pyrazol-1-yl)(1-(6-(trifluoromethyl)pyrimidin-4-yl)piperidin-4-yl)methanone]	1 to 31.6 nM	1 to 100

Continued, in another order:

IC50 (RIP1 kinase)	SMILES	IC50 [1] [nM]
1 to 31.6 nM and 1 to 10 nM	CNc1nccc(N2CCC(C(=O)N3N=CC[C@H]3c3ccccc3)CC2)n1 [Example 15, (S)-(1-(2-(methylamino)pyrimidin-4-yl)piperidin-4-yl)(5-phenyl-4,5-dihydro-1H-pyrazol-1-yl)methanone]	1 to 100
1 to 31.6 nM	CNc1ccnc(N2CCC(C(=O)N3N=CC[C@H]3c3ccccc3)CC2)n1 [Example 16, (S)-(1-(4-(methylamino)pyrimidin-2-yl)piperidin-4-yl)(5-phenyl-4,5-dihydro-1H-pyrazol-1-yl)methanone]	1 to 100
1 to 31.6 nM and 1 to 10 nM	COc1nccc(N2CCC(C(=O)N3N=CC[C@H]3c3ccccc3)CC2)n1 [Example 17, (S)-(1-(2-methoxypyrimidin-4-yl)piperidin-4-yl)(5-phenyl-4,5-dihydro-1H-pyrazol-1-yl)methanone]	1 to 100
1 to 31.6 nM and 1 to 10 nM	N#Cc1nccc(N2CCC(C(=O)N3N=CC[C@H]3c3ccccc3)CC2)n1 [Example 18, (S)-4-(4-(5-phenyl-4,5-dihydro-1H-pyrazole-1-carbonyl)piperidin-1-yl)pyrimidine-2-carbonitrile]	1 to 100
1 to 31.6 nM	O=C(C1CCN(c2nccc(=O)[nH]2)CC1)N1N=CC[C@H]1c1ccccc1 [Example 19, (S)-2-(4-(5-phenyl-4,5-dihydro-1H-pyrazole-1-carbonyl)piperidin-1-yl)pyrimidin-4(3H)-one]	1 to 100
1 to 31.6 nM	Cc1nc(N)cc(N2CCC(C(=O)N3N=CC[C@H]3c3ccccc3)CC2)n1 [Example 33, (S)-(1-(6-amino-2-methylpyrimidin-4-yl)piperidin-4-yl)(5-phenyl-4,5-dihydro-1H-pyrazol-1-yl)methanone]	1 to 100
1 to 31.6 nM and 1 to 10 nM	N#Cc1cnc(N2CCC(C(=O)N3N=CC[C@H]3c3ccccc3)CC2)cn1 [Example 40, (S)-5-(4-(5-phenyl-4,5-dihydro-1H-pyrazole-1-carbonyl)piperidin-1-yl)pyrazine-2-carbonitrile]	1 to 100
1 to 31.6 nM	Nc1cncc(N2CCC(C(=O)N3N=CC[C@H]3c3ccccc3)CC2)n1 [Example 41, (S)-(1-(6-aminopyrazin-2-yl)piperidin-4-yl)(5-phenyl-4,5-dihydro-1H-pyrazol-1-yl)methanone]	1 to 100
1 to 31.6 nM	N#Cc1ccc(N2CCC(C(=O)N3N=CC[C@H]3c3ccccc3)CC2)nn1 [Example 42, (S)-6-(4-(5-phenyl-4,5-dihydro-1H-pyrazole-1-carbonyl)piperidin-1-yl)pyridazine-3-carbonitrile]	1 to 100
1 to 31.6 nM and 1 to 10 nM	N#Cc1nccnc1N1CCC(C(=O)N2N=CC[C@H]2c2ccccc2)CC1 [Example 44, (S)-3-(4-(5-phenyl-4,5-dihydro-1H-pyrazole-1-carbonyl)piperidin-1-yl)pyrazine-2-carbonitrile]	1 to 100
1 to 31.6 nM and 1 to 10 nM	CSc1nccc(N2CCC(C(=O)N3N=CC[C@H]3c3ccccc3)CC2)n1 [Example 45, (S)-(1-(2-(methylthio)pyrimidin-4-yl)piperidin-4-yl)(5-phenyl-4,5-dihydro-1H-pyrazol-1-yl)methanone]	1 to 100
1 to 31.6 nM and 1 to 10 nM	O=C(C1CCN(c2ccnc(C(F)(F)F)n2)CC1)N1N=CC[C@H]1c1ccccc1 [Example 46, (S)-(5-phenyl-4,5-dihydro-1H-pyrazol-1-yl)(1-(2-(trifluoromethyl)pyrimidin-4-yl)piperidin-4-yl)methanone]	1 to 100
1 to 31.6 nM	N#Cc1cncc(N2CCC(C(=O)N3N=CC[C@H]3c3ccccc3)CC2)n1 [Example 47, (S)-6-(4-(5-phenyl-4,5-dihydro-1H-pyrazole-1-carbonyl)piperidin-1-yl)pyrazine-2-carbonitrile]	1 to 100
1 to 31.6 nM	COc1cncc(N2CCC(C(=O)N3N=CC[C@H]3c3ccccc3)CC2)n1 [Example 48, (S)-(1-(6-methoxypyrazin-2-yl)piperidin-4-yl)(5-phenyl-4,5-dihydro-1H-pyrazol-1-yl)methanone]	1 to 100
1 to 31.6 nM and 1 to 10 nM	N#Cc1cncnc1N1CCC(C(=O)N2N=CC[C@H]2c2ccccc2)CC1 [Example 50, (S)-4-(4-(5-phenyl-4,5-dihydro-1H-pyrazole-1-carbonyl)piperidin-1-yl)pyrimidine-5-carbonitrile]	1 to 100
1 to 31.6 nM and 1 to 10 nM	N#Cc1csc(N2CCC(C(=O)N3N=CC[C@H]3c3ccccc3)CC2)n1 [Example 53, (S)-2-(4-(5-phenyl-4,5-dihydro-1H-pyrazole-1-carbonyl)piperidin-1-yl)thiazole-4-carbonitrile]	1 to 100
1 to 31.6 nM	CNC(=O)c1csc(N2CCC(C(=O)N3N=CC[C@H]3c3ccccc3)CC2)n1 [Example 54, (S)-N-methyl-2-(4-(5-phenyl-4,5-dihydro-1H-pyrazole-1-carbonyl)piperidin-1-yl)thiazole-4-carboxamide]	1 to 100
1 to 31.6 nM	NC(=O)c1csc(N2CCC(C(=O)N3N=CC[C@H]3c3ccccc3)CC2)n1 [Example 56, (S)-2-(4-(5-phenyl-4,5-dihydro-1H-pyrazole-1-carbonyl)piperidin-1-yl)thiazole-4-carboxamide]	1 to 100
